How the values were obtained:
[1] = test system: Ba/F3-MPL CALR wild-type control; assay: apoptosis assay by Annexin V/PI staining; format: cell-based, mouse; conditions: 20 uM, 24 h
Procedure: (§1) Ba/F3-MPL CALR wild-type and mutant cell lines were treated with hematoxylin at 20 uM or the equivalent volume of DMSO for 24 h before collection. Annexin V Apoptosis Detection Kit (eBioscience, #88-8007-74) was used based on the manufacturer's instructions. 5 ul of Propidium Iodide Staining Solution (Invitrogen, #00-6990-50) was added to each sample for 10 min before being analyzed with the BD LSRFortessa™ cell analyzer without washing.

[2] = test system: Ba/F3-MPL CALR mutated cell line; assay: apoptosis assay by Annexin V/PI staining; format: cell-based, mouse; conditions: 20 uM, 24 h
Procedure: as §1

mutant calreticulin = molecular target: T1, mutant calreticulin (Homo sapiens, UniProt P27797); assay: Western blot analysis of CD34-positive cells from a CALR ins5 mutant patient; format: cell-based; parameters: dose or concentration left out as unconfirmed; conditions: hematoxylin, 8 hours
T1 construct: CD34-positive cells isolated from a healthy control and a CALR ins5 mutant patient; endogenous in cells; host or cells: primary CD34-positive cells from a CALR ins5 mutant patient
T1 sequence (P27797 with tags, fused parts or gaps, stated change not applied): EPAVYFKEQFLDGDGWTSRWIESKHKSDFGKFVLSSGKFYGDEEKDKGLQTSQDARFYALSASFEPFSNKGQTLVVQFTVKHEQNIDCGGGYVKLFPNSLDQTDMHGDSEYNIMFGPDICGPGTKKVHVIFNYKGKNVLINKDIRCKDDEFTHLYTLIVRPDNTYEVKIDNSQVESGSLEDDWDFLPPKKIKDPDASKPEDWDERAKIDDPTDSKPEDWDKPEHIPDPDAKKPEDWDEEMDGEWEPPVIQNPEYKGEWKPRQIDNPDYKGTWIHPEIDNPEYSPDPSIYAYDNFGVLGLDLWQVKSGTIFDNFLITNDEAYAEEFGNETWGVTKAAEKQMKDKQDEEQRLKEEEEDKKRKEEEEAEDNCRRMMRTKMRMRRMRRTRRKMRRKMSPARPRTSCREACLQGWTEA
Procedure: (§2) 2 million Ba/F3-MPL CALR WT or mutant cells were treated with hematoxylin or the equivalent volume of DMSO in a total volume of 15 ml of RPMI media in T75 flasks (Thermal Fisher Scientific). Cells were collected and washed with PBS before being lysed in whole cell lysis buffer containing 20 mM HEPES, 20% glycerol, 50 mM KCl, 400 mM NaCl, 1 mM EDTA, 1 mM DTT, 5 mM Na orthovanadate, 0.5% NP40, 0.1% Tween 20, supplemented with cOmplete™, Mini, EDTA-free Protease Inhibitor Cocktail (Sigma) and PhosSTOP™ (Sigma). Samples were rotated at 4° C. for 20 min prior to centrifugation at […] for 20 min. The soluble fraction of the sample was collected. Protein concentration was quantified by the Bio-Rad Protein Assay (Bio-Rad) according to the manufacturer's instructions and measured by a SpectraMax Microplate Reader (Molecular Devices). Equal amounts of protein were loaded for 8% or 10% SDS-polyacrylamide gel electrophoresis prior to transfer to Amersham™ Protran® nitrocellulose membranes at 35V, 4° C. overnight. Membranes were then blocked by 5% bovine serum albumin fraction V (Sigma) or milk. Mutant calreticulin was detected by a polyclonal rabbit antibody against the mutant specific C-terminal peptide (Myelopro). […]

[3] = test system: UT-7-TPO CALR del58/WT cells mixed with UT-7-TPO CALR WT cells; assay: two-color competition assay, 12 days; format: cell-based; conditions: in the presence of TPO
Procedure: (§3) FIG. 11: Competition assay of hematoxylin treatment in UT-7-TPO cells. UT-7-TPO CALR WT (mCherry negative) and UT-7-TPO CALR del58/WT (mCherry positive) cells were mixed and underwent hematoxylin treatment for 12 days. Drug and cytokine were refreshed every 3 days. Percentage of mCherry positive cells were recorded by FACs.
(§4) To determine long-term viability, a two-color competition assay was used. Cell lines were transduced with pMSCV-IRES-GFP/mCherry construct, and the fluorescence-positive cells were sorted by a SH800Z Cell Sorter (Sony). GFP/mCherry-positive cell lines were mixed with their non-fluorescent control cells in a 1:1 ratio and underwent compound treatment for 3-12 days. Compounds and cytokines were refreshed every 3 days. Cell samples were analyzed at each time point by a BD LSRFortessa™ cell analyzer (BD Biosciences).

wild-type calreticulin = molecular target: T2, wild-type calreticulin (Mus musculus, UniProt P14211); assay: Western blot analysis of Ba/F3-MPL cell lines; format: cell-based; conditions: 20 uM, 24 hours
T2 construct: endogenous in cells; host or cells: Ba/F3-MPL CALR WT and CALR WT/del79 cell lines
T2 sequence (P14211 18-416): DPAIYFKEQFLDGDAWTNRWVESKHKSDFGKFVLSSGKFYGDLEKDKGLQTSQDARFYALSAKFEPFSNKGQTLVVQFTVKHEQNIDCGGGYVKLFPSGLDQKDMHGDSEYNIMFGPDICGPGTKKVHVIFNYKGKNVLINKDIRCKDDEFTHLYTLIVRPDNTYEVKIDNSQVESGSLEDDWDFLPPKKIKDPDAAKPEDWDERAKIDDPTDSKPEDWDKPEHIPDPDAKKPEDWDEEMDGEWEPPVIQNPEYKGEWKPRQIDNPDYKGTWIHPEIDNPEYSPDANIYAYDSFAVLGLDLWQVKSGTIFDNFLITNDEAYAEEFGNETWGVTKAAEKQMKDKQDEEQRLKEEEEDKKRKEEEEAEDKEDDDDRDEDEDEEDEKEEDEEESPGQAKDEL
Procedure: as §2

[4] = test system: Ba/F3-MPL CALR del52/WT cells mixed with Ba/F3-MPL CALR WT cells; assay: two-color competition assay, 12 days; format: cell-based, mouse; conditions: in the presence of TPO, compared to DMSO control
Procedure: as §3, with “10:” for “11:”, “Ba/F3-MPL” for “UT-7-TPO”, “(GFP” for “(mCherry”, “del52/WT (GFP” for “del58/WT (mCherry”, “GFP” for “mCherry”
as §4

Compound: Oc1cc2c(cc1O)[C@@H]1c3ccc(O)c(O)c3OC[C@]1(O)C2 [hematoxylin, Hematoxylin]
- apoptotic cell numbers [1]: not in the wild-type control
- apoptotic cell numbers [2]: significant elevation of apoptotic cell numbers
- protein abundance of mutant calreticulin (mutant calreticulin): drastically reduced
- outgrowth of mutant cells from the cell population [3]: inhibited the outgrowth of the mutant cells
- wild-type calreticulin protein level (wild-type calreticulin; CALR WT cell line): not affected
- wild-type calreticulin protein level (wild-type calreticulin; CALR heterozygous mutant cell line): up-regulation
- depletion of CALR mutant cells in co-cultivation with CALR WT cells [4]: almost completely depleted

Reference: US12410185B2, “Compounds targeting mutant calreticulin” (MYELOPRO DIAGNOSTICS AND RESEARCH GmbH, priority 2018, dated 2025)
